Test results reported in the METLIN SMRT retention time set (Domingo-Almenara et al. 2019).

Experiment: gradient 5% acetonitrile 3 min, to 50% in 2 min, to 85% in 15 min, held 3 min, 100 µL/min
Conditions: column: Zorbax Extend-C18 2.1 x 50 mm; eluents: water / acetonitrile, 0.1% formic acid
Procedure, shortened: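 Each retention time is based on an adduct peak selected computationally and verified by manual inspection. Measurements used HPLC–quadrupole time-of-flight mass spectrometry in positive and negative ionization mode on mixtures of ~100 pure standards. Chromatography ran on a Zorbax Extend-C18 column (2.1 × 50 mm, 1.8 μm) at 100 μL/min with water and acetonitrile, each containing 0.1% formic acid, and dead and dwell volumes of 40 μL and 900 μL.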

Row | Structure (SMILES) | RP-LC retention time
1 | COc1c(C=O)c2c(c(OC)c1OC)-c1ccc(OC)c(=O)cc1[C@@H](NC(C)=O)CC2 | 725 s
2 | Cc1[nH]c(C(=O)N2CCCC(C(=O)NC(c3cccs3)C(C)C)C2)c(C)c1C(=O)OC(C)C (stereo not drawn) | 987 s
3 | COC[C@@H]1CN(S(=O)(=O)c2cccc(F)c2)C[C@H]1c1ccccn1 | 639 s
4 | CC(C)n1c(=O)c2ccccc2n(Cc2nc(-c3cccc(Br)c3)no2)c1=O | 1250 s
5 | CCN1CCN(S(=O)(=O)c2cc(-c3nnc(C4CCCC4)o3)co2)CC1 | 637 s
6 | COc1ccc(Cn2nc3ccc(S(=O)(=O)N4CCCC4)cn3c2=O)cc1F | 862 s
7 | CC1CCN(CCCC(=O)c2ccc(F)cc2)CC1 | 685 s
8 | CN(C)c1cc(N2CCCC(NC(=O)Cc3cccs3)C2)ncn1 (stereo not drawn) | 596 s
9 | CCn1c(C(=O)NCCc2ccc(OC)c(OC)c2)cc2sc(Cl)cc21 | 1030 s
10 | Cc1ccc(C)c(NC(=O)NCCc2cn(C)c3ncccc23)c1 | 704 s
11 | COc1ccc(-c2cc(=O)n3c4ccccc4n(CC(=O)Nc4ccc(F)cc4)c3n2)cc1 | 1010 s
12 | CNC(=O)Nc1ccc2nc3n(c(=O)c2c1)CCCC3 | 559 s
13 | O=C(CCc1c[nH]c2ccccc12)N1CCOc2ccc(N3CCOCC3)cc2C1 | 770 s
14 | CCOc1ccc(-c2csc(NC(=O)CCCOc3ccc(OC)cc3)n2)cc1 | 1080 s
15 | CCN(CC)CCCNC(=O)c1cc2n(n1)CC(C)(C(=O)NCc1ccc(F)cc1)N(C)C2=O (stereo not drawn) | 596 s
16 | Cn1cccc1C(=O)Nc1cnn(-c2ncc(N3CCSCC3)cn2)c1 | 768 s
17 | CCOc1ccc2ncc(S(=O)(=O)c3ccc(OC)cc3)c(N3CCN(CC)CC3)c2c1 | 660 s
18 | CCOC(=O)c1ccc(Nc2c(-c3ccc(C)cc3)nc3cnccn23)cc1 | 918 s
19 | O=C(CCC1CCN(c2cc(NC3CC3)ncn2)CC1)NCCN1CCc2ccccc2C1 | 574 s

Row | Structure (SMILES) | RP-LC retention time
20 | COc1ccc(OC)c(NS(=O)(=O)c2c(C)nn(-c3ccc(-c4ccc(C)cc4)nn3)c2C)c1 | 1110 s
21 | COc1ncc(C(=O)Nc2ccccc2)c(C)n1 | 698 s
22 | COc1cccc(NC(=O)N2CCN(Cc3nc4cc(Cl)ccc4o3)CC2)c1 | 731 s
23 | CC(C)(C)c1ccc(NC(=O)NCCN2CCN(S(C)(=O)=O)CC2)cc1 | 606 s
24 | CC(=O)Nc1ccc(OCCOc2ccc([N+](=O)[O-])cc2)cc1 | 862 s
25 | O=S(=O)(c1cc(F)cc(F)c1)N1CCC(c2noc(-c3cccc(F)c3)n2)CC1 | 1170 s
26 | O=C(CSc1n[nH]c(-c2ccccc2)n1)NC1CCCCC1 | 784 s
27 | CC(C)(c1ccccc1)c1cc(CN2CCOCC2)c(O)c(CN2CCOCC2)c1 | 575 s
28 | CC(C)(C)NC(=O)NC1CCN(c2ccccc2)C1=O (stereo not drawn) | 722 s
29 | Cc1noc([C@@H]2CN(C(=O)c3occc3C)C[C@H]2COCC2CC2)n1 | 794 s
30 | CC1SC(C)C(=O)N(CC(=O)Nc2ccc3c(c2)OCCO3)C1=O (stereo not drawn) | 735 s
31 | Cc1cc(NC(=O)C(=O)NCC2(c3ccc(F)cc3)CCOCC2)no1 | 736 s
32 | O=C(CN1C(=O)C2CCCCN2c2ccc(S(=O)(=O)N3CCCC3)cc21)NCC1COCCO1 (stereo not drawn) | 736 s
33 | Cc1csc(-c2cc(S(=O)(=O)N3CCN(C)CC3)cn2CC(=O)N2CCCCC2)n1 | 654 s
34 | COC(=O)c1sccc1S(=O)(=O)Nc1ccc(CC(=O)N2CCC(O)CC2)cc1 | 882 s
35 | Cc1csc(-c2cc(S(=O)(=O)NC3CC3)cn2CC(=O)N2CCCCC2)n1 | 841 s
36 | O=c1oc2cc(O)c(Cl)cc2c2ccccc12 | 847 s
37 | Cc1nc(C(=O)Nc2ccc(Cl)cc2)c(C)o1 | 901 s
38 | CCn1c(=O)oc2cc(-c3noc(-c4cccc(F)c4)n3)ccc21 | 1110 s

Row | Structure (SMILES) | RP-LC retention time
39 | CC(C)S(=O)(=O)c1cc2c(cc1NC(=O)c1ccccc1C(F)(F)F)n(C)c(=O)n2C | 853 s
40 | CCCN1C(=O)COc2ccc(-c3noc(-c4ccccc4C(F)(F)F)n3)cc21 | 1230 s
41 | CCc1ccc(NC(=O)Cn2cnc3nc4c(cc3c2=O)CCCC4)cc1 | 788 s
42 | O=C(O)c1ccccc1C(=O)Nc1cccc(Cl)c1 | 701 s
43 | CCc1cc(C(=O)N2CCN(C3CCN(C)CC3)CC2)nc2cc(-c3ccccn3)nn12 | 562 s
44 | Cc1ccc(N2C=C(C(=O)N3CCCC3)S(=O)(=O)c3ccc(F)cc32)cc1 | 799 s
45 | CCN(CC)CC(C)(C)C(=O)/C=C/c1ccc(C)cc1 | 684 s
46 | Cc1nc([C@@H]2CN(C(=O)c3noc(C)c3Cn3cccn3)C[C@H]2C(N)=O)n[nH]1 | 578 s
47 | COc1ccc(NC(=O)Cn2c(N3CCCCC3)nc(C)cc2=O)cc1F | 717 s
48 | CC(CCNC(=O)c1cc(S(=O)(=O)N2CCCC2)ccc1Cl)N1CCCC1 (stereo not drawn) | 601 s
49 | COc1ncccc1C(=O)Nc1ccc2c(c1)CCC(=O)N2 | 641 s
50 | Cc1nc2c(ccc3nc(NC(=O)c4ccc5c(c4)OCCO5)sc32)s1 | 858 s
51 | CCCNc1c(C(=O)OC)c(=O)[nH]c2c(Cl)cccc12 | 724 s
52 | Cc1ccc(C2=NC3(CCN(C(=O)c4n[nH]c5c4CCCC5)CC3)ON2)cc1 | 736 s
53 | COc1ccc(N2CC(c3noc(-c4ccc(OC)c(OC)c4)n3)CC2=O)cc1 (stereo not drawn) | 839 s
54 | CCc1cnc2c(c1OC)c(=O)n(Cc1ccccc1F)c(=O)n2C | 970 s
55 | CSc1ccc(-c2nc3cnccn3c2Nc2ccc(C(N)=O)cc2)cc1 | 658 s
56 | Cc1ccc(-c2nc(N)n(S(=O)(=O)c3ccc(C)cc3)n2)cc1 | 969 s

Further lines, results first:

Row | RP-LC retention time | Structure (SMILES)
57 | 729 s | O=C(CSc1ccc(N2CCCC(C(=O)NC3CC3)C2)nn1)Nc1ccc(C(F)(F)F)cc1 (stereo not drawn)
58 | 843 s | COc1ccc(-c2c(C)noc2NC(C)=O)cc1S(=O)(=O)N1CCN(c2ccc(F)cc2)CC1
59 | 899 s | CC(Oc1ccccc1)c1nc(-c2ccc3c(c2)nnn3CCC(=O)N2CCCC2)no1 (stereo not drawn)
60 | 766 s | COc1ccc(-c2ccc(N3CCN(c4ccccc4)CC3)nn2)cc1S(=O)(=O)N1CCOCC1
61 | 828 s | CC(C(=O)O)c1ccc(N2Cc3ccccc3C2=O)cc1 (stereo not drawn)
62 | 894 s | O=C(c1cc(F)ccc1Cl)N1CCN(C(=O)c2nnn3c2COC(c2ccccc2)C3)CC1 (stereo not drawn)
63 | 951 s | Clc1ccc(OCc2nc3c4ccccc4ncn3n2)cc1
64 | 650 s | Fc1cccc(N2CC3(CCN(Cc4ccncc4F)CC3)C2c2ccccc2)c1 (stereo not drawn)
65 | 905 s | COC(=O)c1ccccc1NC(=O)CSc1cc(N2CCN(c3ccccc3OC)CC2)ncn1
66 | 639 s | Cc1cnc(C2CN(Cc3ccc(C(F)(F)F)cc3)C2)n1Cc1ccccc1
67 | 792 s | CSc1ccc(CNC(=O)C2CCCN(c3nn4c(=O)c5c(nc4s3)CCCC5)C2)cc1 (stereo not drawn)
68 | 947 s | O=C(Oc1cccnc1)c1cn(-c2ccc(Cl)cc2)c(=O)c2ccccc12
69 | 758 s | O=C(Cc1ccccc1Cl)N1CCC2(C1)C(=O)Nc1ccccc12 (stereo not drawn)
70 | 1220 s | CC(C)(C)c1cc(N2CCN(c3ccccn3)CC2)n2ncc(-c3ccc(Cl)cc3)c2n1
71 | 683 s | CCCNC(=O)C1CCCN(c2nc3ncn(CC(=O)Nc4ccccc4)c(=O)c3s2)C1 (stereo not drawn)
72 | 1080 s | Cc1nn(-c2ccc(F)cc2)c2nc(N3CCCC(C(=O)NCCc4ccco4)C3)sc12 (stereo not drawn)

Row | RP-LC retention time | Structure (SMILES)
73 | 1020 s | Cc1ccc(-c2nnc(-c3nn(C)c4c3CN(S(=O)(=O)c3ccccc3Cl)CC4)o2)cc1
74 | 1220 s | CCCn1c(=O)c2cc(C(=O)Nc3cc(Cl)ccc3F)nn2c2ccccc21
75 | 828 s | Cc1ccc(-c2cc3c(N4CCCC(C(=O)NC(C)C)C4)nccn3n2)c(C)c1 (stereo not drawn)
76 | 1120 s | CC(=O)N1CCc2[nH]c3ccc(C(=O)NCc4ccc(N5CCCC5)cc4)cc3c2C1
77 | 667 s | COc1ccc(N2CCN(c3ncc4c(n3)CCN(Cc3ccccc3Cl)C4)CC2)cc1
78 | 760 s | Cc1nnc(N2CCCC(C(=O)NCc3ccc(Cl)cc3)C2)c2nn(-c3ccccc3)c(C)c12 (stereo not drawn)
79 | 721 s | O=C(NC1CCN(c2cc(-c3ccc(Cl)cc3)[nH]n2)C1)c1cccc(F)c1 (stereo not drawn)
80 | 1190 s | CCc1ccc(NC(=O)Cn2nc3cc(C)nc(Nc4ccc(C)c(F)c4)n3c2=O)cc1
81 | 799 s | COC(=O)c1cc(S(=O)(=O)N2CCCC2C(=O)NCc2ccc(F)cc2)cn1C (stereo not drawn)
82 | 1210 s | O=C(Cc1csc(-c2ccccc2)n1)Nc1nc(-c2ccccc2Cl)cs1
83 | 840 s | O=C(NCc1ccc2c(c1)CCCN2C(=O)C1CC1)c1ccc(Br)o1
84 | 719 s | CCOc1ccccc1N1CCN(C(=O)C2CCN(c3nccc4c(C)nn(CC)c34)CC2)CC1
85 | 639 s | CC(NC(=O)C1=CCN(Cc2ccccc2)CC1)c1ccccc1 (stereo not drawn)
86 | 600 s | O=C1c2ccccc2-c2onc3c(N4CCN(c5ccccn5)CC4)cc(N4CCCCC4)c1c23
87 | 721 s | Cc1cccc(C)c1Nc1c(-c2ccc(N3CCOCC3)cc2)nc2ncccn12
88 | 1040 s | CC1=NN(c2ccccc2)C(=O)C1C(=O)c1ccccc1Br (stereo not drawn)
